# Measured values taken from ChEMBL document CHEMBL3045835, “Comparative study of conventional and microwave-assisted synthesis of some Schiff bases and their potential as antimicrobial agents” (2012).
# Key:
# Format in all cases: functional
# Aspergillus niger [1] = test: Antifungal activity against Aspergillus niger MTCC 2546 at 1500 ug/ml after 18 hr by cup-plate method; settings: MTCC 2546, 18 h, read-out: DIZ
# Escherichia coli [2] = test: Antibacterial activity against Escherichia coli MTCC 1573 at 200 ug/ml after 18 hr by cup-plate method; settings: MTCC 1573, 18 h, read-out: DIZ
# Bacillus subtilis [3] = test: Antibacterial activity against Bacillus subtilis MTCC 441 at 1500 ug/ml after 18 hr by cup plate method; settings: MTCC 441, 18 h, read-out: DIZ
# Bacillus pumilus [4] = test: Antibacterial activity against Bacillus pumilus MTCC 1456 at 200 ug/ml after 18 hr by cup-plate method; settings: MTCC 1456, 18 h, read-out: DIZ
# Aspergillus niger [5] = test: Antifungal activity against Aspergillus niger MTCC 2546 after 24 hr by broth dilution method; settings: MTCC 2546, 24 h
# Staphylococcus aureus [6] = test: Antibacterial activity against Staphylococcus aureus MTCC 1430 at 100 ug/ml after 18 hr by cup-plate method; settings: MTCC 1430, 18 h, read-out: DIZ
# Escherichia coli [7] = test: Antibacterial activity against Escherichia coli MTCC 1573 at 100 ug/ml after 18 hr by cup-plate method; settings: MTCC 1573, 18 h, read-out: DIZ
# Bacillus subtilis [8] = test: Antibacterial activity against Bacillus subtilis MTCC 441 at 500 ug/ml after 18 hr by cup plate method; settings: MTCC 441, 18 h, read-out: DIZ
# Penicillium chrysogenum [9] = test: Antifungal activity against Penicillium chrysogenum MTCC 161 at 1000 ug/ml after 18 hr by cup-plate method; settings: MTCC 161, 18 h, read-out: DIZ
# Escherichia coli [10] = test: Antibacterial activity against Escherichia coli MTCC 1573 at 1000 ug/ml after 18 hr by cup-plate method; settings: MTCC 1573, 18 h, read-out: DIZ
# Bacillus pumilus [11] = test: Antibacterial activity against Bacillus pumilus MTCC 1456 at 100 ug/ml after 18 hr by cup-plate method; settings: MTCC 1456, 18 h, read-out: DIZ
# Escherichia coli [12] = test: Antibacterial activity against Escherichia coli MTCC 1573 at 1500 ug/ml after 18 hr by cup-plate method; settings: MTCC 1573, 18 h, read-out: DIZ
# Micrococcus luteus [13] = test: Antibacterial activity against Micrococcus luteus MTCC 1538 after 24 hr by broth dilution method; settings: MTCC 1538, 24 h
# Bacillus pumilus [14] = test: Antibacterial activity against Bacillus pumilus MTCC 1456 at 1000 ug/ml after 18 hr by cup-plate method; settings: MTCC 1456, 18 h, read-out: DIZ
# Staphylococcus aureus [15] = test: Antibacterial activity against Staphylococcus aureus MTCC 1430 after 24 hr by broth dilution method; settings: MTCC 1430, 24 h
# Bacillus pumilus [16] = test: Antibacterial activity against Bacillus pumilus MTCC 1456 at 1500 ug/ml after 18 hr by cup-plate method; settings: MTCC 1456, 18 h, read-out: DIZ
# Pseudomonas fluorescens [17] = test: Antibacterial activity against Pseudomonas fluorescens MTCC 2421 after 24 hr by broth dilution method; settings: MTCC 2421, 24 h
# Pseudomonas aeruginosa [18] = test: Antibacterial activity against Pseudomonas aeruginosa MTCC 424 at 100 ug/ml after 18 hr by cup-plate method; settings: MTCC 424, 18 h, read-out: DIZ
# Aspergillus niger [19] = test: Antifungal activity against Aspergillus niger MTCC 2546 at 100 ug/ml after 18 hr by cup-plate method; settings: MTCC 2546, 18 h, read-out: DIZ
# Pseudomonas fluorescens [20] = test: Antibacterial activity against Pseudomonas fluorescens MTCC 2421 at 100 ug/ml after 18 hr by cup-plate method; settings: MTCC 2421, 18 h, read-out: DIZ
# Pseudomonas aeruginosa [21] = test: Antibacterial activity against Pseudomonas aeruginosa MTCC 424 at 1500 ug/ml after 18 hr by cup-plate method; settings: MTCC 424, 18 h, read-out: DIZ
# Penicillium chrysogenum [22] = test: Antifungal activity against Penicillium chrysogenum MTCC 161 at 500 ug/ml after 18 hr by cup-plate method; settings: MTCC 161, 18 h, read-out: DIZ
# Aspergillus niger [23] = test: Antifungal activity against Aspergillus niger MTCC 2546 at 200 ug/ml after 18 hr by cup-plate method; settings: MTCC 2546, 18 h, read-out: DIZ
# Pseudomonas aeruginosa [24] = test: Antibacterial activity against Pseudomonas aeruginosa MTCC 424 at 1000 ug/ml after 18 hr by cup-plate method; settings: MTCC 424, 18 h, read-out: DIZ
# Pseudomonas aeruginosa [25] = test: Antibacterial activity against Pseudomonas aeruginosa MTCC 424 after 24 hr by broth dilution method; settings: MTCC 424, 24 h
# Pseudomonas fluorescens [26] = test: Antibacterial activity against Pseudomonas fluorescens MTCC 2421 at 1500 ug/ml after 18 hr by cup-plate method; settings: MTCC 2421, 18 h, read-out: DIZ
# Pseudomonas fluorescens [27] = test: Antibacterial activity against Pseudomonas fluorescens MTCC 2421 at 200 ug/ml after 18 hr by cup-plate method; settings: MTCC 2421, 18 h, read-out: DIZ
# Escherichia coli [28] = test: Antibacterial activity against Escherichia coli MTCC 1573 after 24 hr by broth dilution method; settings: MTCC 1573, 24 h
# Penicillium chrysogenum [29] = test: Antifungal activity against Penicillium chrysogenum MTCC 161 at 1500 ug/ml after 18 hr by cup-plate method; settings: MTCC 161, 18 h, read-out: DIZ
# Micrococcus luteus [30] = test: Antibacterial activity against Micrococcus luteus MTCC 1538 at 100 ug/ml after 18 hr by cup-plate method; settings: MTCC 1538, 18 h, read-out: DIZ
# Micrococcus luteus [31] = test: Antibacterial activity against Micrococcus luteus MTCC 1538 at 1500 ug/ml after 18 hr by cup-plate method; settings: MTCC 1538, 18 h, read-out: DIZ
# Bacillus subtilis [32] = test: Antibacterial activity against Bacillus subtilis MTCC 441 after 24 hr by broth dilution method; settings: MTCC 441, 24 h
# Staphylococcus aureus [33] = test: Antibacterial activity against Staphylococcus aureus MTCC 1430 at 200 ug/ml after 18 hr by cup-plate method; settings: MTCC 1430, 18 h, read-out: DIZ
# Pseudomonas fluorescens [34] = test: Antibacterial activity against Pseudomonas fluorescens MTCC 2421 at 500 ug/ml after 18 hr by cup-plate method; settings: MTCC 2421, 18 h, read-out: DIZ
# Bacillus subtilis [35] = test: Antibacterial activity against Bacillus subtilis MTCC 441 at 100 ug/ml after 18 hr by cup plate method; settings: MTCC 441, 18 h, read-out: DIZ
# Escherichia coli [36] = test: Antibacterial activity against Escherichia coli MTCC 1573 at 500 ug/ml after 18 hr by cup-plate method; settings: MTCC 1573, 18 h, read-out: DIZ
# Bacillus pumilus [37] = test: Antibacterial activity against Bacillus pumilus MTCC 1456 at 500 ug/ml after 18 hr by cup-plate method; settings: MTCC 1456, 18 h, read-out: DIZ
# Aspergillus niger [38] = test: Antifungal activity against Aspergillus niger MTCC 2546 at 1000 ug/ml after 18 hr by cup-plate method; settings: MTCC 2546, 18 h, read-out: DIZ
# Penicillium chrysogenum [39] = test: Antifungal activity against Penicillium chrysogenum MTCC 161 at 200 ug/ml after 18 hr by cup-plate method; settings: MTCC 161, 18 h, read-out: DIZ
# Pseudomonas aeruginosa [40] = test: Antibacterial activity against Pseudomonas aeruginosa MTCC 424 at 200 ug/ml after 18 hr by cup-plate method; settings: MTCC 424, 18 h, read-out: DIZ
# Bacillus pumilus [41] = test: Antibacterial activity against Bacillus pumilus MTCC 1456 after 24 hr by broth dilution method; settings: MTCC 1456, 24 h
# Staphylococcus aureus [42] = test: Antibacterial activity against Staphylococcus aureus MTCC 1430 at 1000 ug/ml after 18 hr by cup-plate method; settings: MTCC 1430, 18 h, read-out: DIZ
# Aspergillus niger [43] = test: Antifungal activity against Aspergillus niger MTCC 2546 at 500 ug/ml after 18 hr by cup-plate method; settings: MTCC 2546, 18 h, read-out: DIZ
# Bacillus subtilis [44] = test: Antibacterial activity against Bacillus subtilis MTCC 441 at 200 ug/ml after 18 hr by cup plate method; settings: MTCC 441, 18 h, read-out: DIZ
# Pseudomonas aeruginosa [45] = test: Antibacterial activity against Pseudomonas aeruginosa MTCC 424 at 500 ug/ml after 18 hr by cup-plate method; settings: MTCC 424, 18 h, read-out: DIZ
# Bacillus subtilis [46] = test: Antibacterial activity against Bacillus subtilis MTCC 441 at 1000 ug/ml after 18 hr by cup plate method; settings: MTCC 441, 18 h, read-out: DIZ
# Penicillium chrysogenum [47] = test: Antifungal activity against Penicillium chrysogenum MTCC 161 at 100 ug/ml after 18 hr by cup-plate method; settings: MTCC 161, 18 h, read-out: DIZ
# Micrococcus luteus [48] = test: Antibacterial activity against Micrococcus luteus MTCC 1538 at 1000 ug/ml after 18 hr by cup-plate method; settings: MTCC 1538, 18 h, read-out: DIZ
# Staphylococcus aureus [49] = test: Antibacterial activity against Staphylococcus aureus MTCC 1430 at 1500 ug/ml after 18 hr by cup-plate method; settings: MTCC 1430, 18 h, read-out: DIZ
# Pseudomonas fluorescens [50] = test: Antibacterial activity against Pseudomonas fluorescens MTCC 2421 at 1000 ug/ml after 18 hr by cup-plate method; settings: MTCC 2421, 18 h, read-out: DIZ
# Micrococcus luteus [51] = test: Antibacterial activity against Micrococcus luteus MTCC 1538 at 500 ug/ml after 18 hr by cup-plate method; settings: MTCC 1538, 18 h, read-out: DIZ
# Micrococcus luteus [52] = test: Antibacterial activity against Micrococcus luteus MTCC 1538 at 200 ug/ml after 18 hr by cup-plate method; settings: MTCC 1538, 18 h, read-out: DIZ
# Penicillium chrysogenum [53] = test: Antifungal activity against Penicillium chrysogenum MTCC 161 after 24 hr by broth dilution method; settings: MTCC 161, 24 h
# Staphylococcus aureus [54] = test: Antibacterial activity against Staphylococcus aureus MTCC 1430 at 500 ug/ml after 18 hr by cup-plate method; settings: MTCC 1430, 18 h, read-out: DIZ
smiles,measurement,setting,value
C(=N/c1nc[nH]n1)/c1cccc2ccccc12,zone of inhibition at 1500 µg/mL,Aspergillus niger [1],22 mm
same,zone of inhibition at 200 µg/mL,Escherichia coli [2],18 mm
same,zone of inhibition at 1500 µg/mL,Bacillus subtilis [3],21 mm
same,zone of inhibition at 200 µg/mL,Bacillus pumilus [4],16 mm
same,MIC,Aspergillus niger [5],50 µg/mL
same,zone of inhibition at 100 µg/mL,Staphylococcus aureus [6],12 mm
same,zone of inhibition at 100 µg/mL,Escherichia coli [7],17 mm
same,zone of inhibition at 500 µg/mL,Bacillus subtilis [8],18 mm
same,zone of inhibition at 1000 µg/mL,Penicillium chrysogenum [9],21 mm
same,zone of inhibition at 1000 µg/mL,Escherichia coli [10],23 mm
same,zone of inhibition at 100 µg/mL,Bacillus pumilus [11],13 mm
same,zone of inhibition at 1500 µg/mL,Escherichia coli [12],25 mm
same,MIC,Micrococcus luteus [13],300 µg/mL
same,zone of inhibition at 1000 µg/mL,Bacillus pumilus [14],18 mm
same,MIC,Staphylococcus aureus [15],400 µg/mL
same,zone of inhibition at 1500 µg/mL,Bacillus pumilus [16],20 mm
same,MIC,Pseudomonas fluorescens [17],300 µg/mL
same,zone of inhibition at 100 µg/mL,Pseudomonas aeruginosa [18],17 mm
same,zone of inhibition at 100 µg/mL,Aspergillus niger [19],16 mm
same,zone of inhibition at 100 µg/mL,Pseudomonas fluorescens [20],14 mm
same,zone of inhibition at 1500 µg/mL,Pseudomonas aeruginosa [21],24 mm
same,zone of inhibition at 500 µg/mL,Penicillium chrysogenum [22],20 mm
same,zone of inhibition at 200 µg/mL,Aspergillus niger [23],17 mm
same,zone of inhibition at 1000 µg/mL,Pseudomonas aeruginosa [24],22 mm
same,MIC,Pseudomonas aeruginosa [25],200 µg/mL
same,zone of inhibition at 1500 µg/mL,Pseudomonas fluorescens [26],23 mm
same,zone of inhibition at 200 µg/mL,Pseudomonas fluorescens [27],16 mm
same,MIC,Escherichia coli [28],50 µg/mL
same,zone of inhibition at 1500 µg/mL,Penicillium chrysogenum [29],24 mm
same,zone of inhibition at 100 µg/mL,Micrococcus luteus [30],12 mm
same,zone of inhibition at 1500 µg/mL,Micrococcus luteus [31],23 mm
same,MIC,Bacillus subtilis [32],300 µg/mL
same,zone of inhibition at 200 µg/mL,Staphylococcus aureus [33],13 mm
same,zone of inhibition at 500 µg/mL,Pseudomonas fluorescens [34],19 mm
same,zone of inhibition at 100 µg/mL,Bacillus subtilis [35],15 mm
same,zone of inhibition at 500 µg/mL,Escherichia coli [36],19 mm
same,zone of inhibition at 500 µg/mL,Bacillus pumilus [37],17 mm
same,zone of inhibition at 1000 µg/mL,Aspergillus niger [38],21 mm
same,zone of inhibition at 200 µg/mL,Penicillium chrysogenum [39],18 mm
same,zone of inhibition at 200 µg/mL,Pseudomonas aeruginosa [40],18 mm
same,MIC,Bacillus pumilus [41],300 µg/mL
same,zone of inhibition at 1000 µg/mL,Staphylococcus aureus [42],16 mm
same,zone of inhibition at 500 µg/mL,Aspergillus niger [43],18 mm
same,zone of inhibition at 200 µg/mL,Bacillus subtilis [44],16 mm
same,zone of inhibition at 500 µg/mL,Pseudomonas aeruginosa [45],20 mm
same,zone of inhibition at 1000 µg/mL,Bacillus subtilis [46],19 mm
same,zone of inhibition at 100 µg/mL,Penicillium chrysogenum [47],17 mm
same,zone of inhibition at 1000 µg/mL,Micrococcus luteus [48],20 mm
same,zone of inhibition at 1500 µg/mL,Staphylococcus aureus [49],18 mm
same,zone of inhibition at 1000 µg/mL,Pseudomonas fluorescens [50],21 mm
same,zone of inhibition at 500 µg/mL,Micrococcus luteus [51],18 mm
same,zone of inhibition at 200 µg/mL,Micrococcus luteus [52],15 mm
same,MIC,Penicillium chrysogenum [53],50 µg/mL
same,zone of inhibition at 500 µg/mL,Staphylococcus aureus [54],14 mm
